PMC11269473, “Monoamine oxidase inhibition properties of 2,1-benzisoxazole derivatives” (Molecular Diversity, 2023)
Several values for one entry are separate records, joined by “and”; a condition that tells them apart may be missing. Equal entries are not always repeated. Where two headings read alike, the source gives them in different places.

What was measured:
recombinant human MAO-A [1] = target: T1, recombinant human MAO-A (Homo sapiens, UniProt P21397); assay: MAO-A inhibition, IC50 determination with kynuramine as substrate (fluorescence of 4-hydroxyquinoline); format: biochemical; settings: 50 µM kynuramine, mean ± SD of triplicate, NI = no inhibition observed at 100 µM
T1 construct: purchased Sigma-Aldrich; host or cells: insect cells (microsomes)
T1 sequence (P21397 1-527): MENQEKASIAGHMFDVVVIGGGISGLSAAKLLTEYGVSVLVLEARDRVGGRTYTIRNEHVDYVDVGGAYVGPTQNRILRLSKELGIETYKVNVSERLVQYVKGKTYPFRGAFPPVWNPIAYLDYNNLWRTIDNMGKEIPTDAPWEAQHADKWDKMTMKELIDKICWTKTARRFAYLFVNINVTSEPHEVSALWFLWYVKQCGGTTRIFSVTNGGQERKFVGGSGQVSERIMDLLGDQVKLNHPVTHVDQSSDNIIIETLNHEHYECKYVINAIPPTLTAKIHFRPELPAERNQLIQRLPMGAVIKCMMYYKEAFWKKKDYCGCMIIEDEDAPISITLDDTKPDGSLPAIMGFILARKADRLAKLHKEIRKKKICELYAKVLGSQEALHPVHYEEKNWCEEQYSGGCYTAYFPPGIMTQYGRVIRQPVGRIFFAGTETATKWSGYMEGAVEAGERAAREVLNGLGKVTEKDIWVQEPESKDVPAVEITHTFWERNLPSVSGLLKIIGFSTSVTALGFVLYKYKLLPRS
Experimental: (§1) The MAO inhibition properties of the 2,1-benzisoxazole derivatives were investigated using the commercially available recombinant human MAO-A and MAO-B enzymes with kynuramine serving as substrate. MAO oxidizes kynuramine to yield 4-hydroxyquinoline, which was measured by fluorescence spectrophotometry.
(§2) For the MAO inhibition studies, a Varian Cary Eclipse fluorescence spectrophotometer was employed. Microsomes from insect cells containing recombinant human MAO-A and MAO-B (5 mg protein/mL) and kynuramine dihydrobromide were obtained from Sigma-Aldrich.
(§3) IC50 values for the inhibition of MAO were measured as described previously. Microsomes from insect cells containing recombinant human MAO-A and MAO-B (5 mg protein/mL) served as enzyme sources (Sigma-Aldrich) while kynuramine was used as non-specific MAO substrate. The enzyme reactions (200 µL reactions prepared in 96-well microtiter plates) contained phosphate buffer (100 mM, pH 7.4), 50 µM kynuramine and the test inhibitors at concentrations of 0.003–100 µM. […] The reactions were initiated with addition of MAO-A (0.0075 mg protein/mL) or MAO-B (0.015 mg protein/mL) and after 20 min of incubation at 37 °C, the reactions were terminated by the addition of 80 µL NaOH (2 N). The concentration of 4-hydroxyquinoline, the product of kynuramine oxidation by MAO, was measured by fluorescence spectrophotometry (λex = 310 nm; λem = 400 nm). IC50 values were estimated from sigmoidal plots of enzyme catalytic rate versus the inhibitor concentration (log[I]) which were constructed with the Prism software package (GraphPad). IC50 values were estimated in triplicate determinations from these plots and are expressed as mean ± standard deviation (SD).

recombinant human MAO-B = target: T2, recombinant human MAO-B (Homo sapiens, UniProt P27338); assay: MAO-B inhibition, IC50 determination with kynuramine as substrate (fluorescence of 4-hydroxyquinoline); format: biochemical; settings: for SI (selectivity index): SI = IC50(MAO-A)/IC50(MAO-B); for IC50: recombinant human MAO-B, 50 µM kynuramine, mean ± SD of triplicate, NI = no inhibition observed at 100 µM
T2 construct: purchased Sigma-Aldrich; host or cells: insect cells (microsomes)
T2 sequence (P27338 1-520): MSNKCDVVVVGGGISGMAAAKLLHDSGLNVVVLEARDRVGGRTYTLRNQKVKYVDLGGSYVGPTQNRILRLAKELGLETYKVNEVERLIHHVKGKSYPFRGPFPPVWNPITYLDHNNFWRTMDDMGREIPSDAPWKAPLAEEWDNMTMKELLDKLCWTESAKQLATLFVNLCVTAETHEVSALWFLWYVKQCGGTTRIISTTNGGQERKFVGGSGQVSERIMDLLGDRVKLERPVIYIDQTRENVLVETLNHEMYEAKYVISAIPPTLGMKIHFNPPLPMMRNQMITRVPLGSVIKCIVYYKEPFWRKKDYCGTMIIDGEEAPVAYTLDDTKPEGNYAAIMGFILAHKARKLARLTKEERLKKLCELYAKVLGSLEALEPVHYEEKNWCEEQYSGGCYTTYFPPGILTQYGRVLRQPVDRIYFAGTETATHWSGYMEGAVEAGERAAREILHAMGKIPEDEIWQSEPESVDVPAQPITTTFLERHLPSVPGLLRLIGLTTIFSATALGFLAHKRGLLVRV
Experimental: as §1, §2
as §3, with “The” for “The reactions were initiated with addition of MAO-A (0.0075 mg protein/mL) or MAO-B (0.015 mg protein/mL) and after 20 min of incubation at 37 °C, the reactions were terminated by the addition of 80 µL NaOH (2 N). The”

recombinant human MAO-A [2] = target: T1, recombinant human MAO-A; assay: Lineweaver–Burk plots / mode of MAO-A inhibition and Ki; format: biochemical
Experimental: These two compounds represent potent MAO inhibitors among the study compounds. […] Each line of the Lineweaver–Burk plots was constructed with the kynuramine concentration ranging from 15 to 250 μM.
The insets are replots of the slopes of the Lineweaver–Burk plots versus inhibitor concentration. The Ki value equals the negative of the x-axis intercept when y = 0
IC50 values for the inhibition of MAO were measured as described previously. Microsomes from insect cells containing recombinant human MAO-A and MAO-B (5 mg protein/mL) served as enzyme sources (Sigma-Aldrich) while kynuramine was used as non-specific MAO substrate. The enzyme reactions (200 µL reactions prepared in 96-well microtiter plates) contained phosphate buffer (100 mM, pH 7.4), 50 µM kynuramine and the test inhibitors at concentrations of 0.003–100 µM. Stock solutions of the test inhibitors were dissolved in DMSO and added to the enzyme reactions to give a final DMSO concentration of 4% (v/v). The reactions were initiated with addition of MAO-A (0.0075 mg protein/mL) or MAO-B (0.015 mg protein/mL) and after 20 min of incubation at 37 °C, the reactions were terminated by the addition of 80 µL NaOH (2 N). The concentration of 4-hydroxyquinoline, the product of kynuramine oxidation by MAO, was measured by fluorescence spectrophotometry (λex = 310 nm; λem = 400 nm). IC50 values were estimated from sigmoidal plots of enzyme catalytic rate versus the inhibitor concentration (log[I]) which were constructed with the Prism software package (GraphPad). IC50 values were estimated in triplicate determinations from these plots and are expressed as mean ± standard deviation (SD).
For each line, the concentration of kynuramine ranged from 15–250 µM.

Row | SMILES | IC50 (recombinant human MAO-A [1]) [µM] | SI (selectivity index) (recombinant human MAO-B) | IC50 (recombinant human MAO-B) | melting point [°C] | mode of MAO-A inhibition (recombinant human MAO-A [2]; Lineweaver–Burk lines intersect on the y-axis) | Ki (recombinant human MAO-A [2]; global (shared) fitting of the inhibition data, read-out: Ki, MAO-A, global (shared) fitting to the Michaelis–Menten equation) [µM] | Ki (recombinant human MAO-A [2]; replot of slopes versus inhibitor concentration, Ki = −x when y = 0, kynuramine 15–250 µM, read-out: Ki, MAO-A, from replot of slopes of Lineweaver–Burk plots) [µM] | fold more potent MAO-B inhibition than homologues (recombinant human MAO-B; versus p-tolyl (3c), phenyl (3j), p-Br-phenyl (3m), p-Cl-phenyl (3n) and p-OCH3-phenyl (3o) homologues)
1 | COc1ccc(-c2onc3ccc(I)cc23)cc1 [Compound 3a, 5-Iodo-3-(4-methoxyphenyl)benzo[c]isoxazole] | 19.4 ± 2.58 | 6.4 | < 6.59 µM and 3.03 µM | 112 to 114 | – | – | – | –
2 | Clc1ccc(-c2onc3ccc(I)cc23)cc1 [Compound 3b, 3-(4-Chlorophenyl)-5-iodobenzo[c]isoxazole] | 77.7 ± 5.97 | 12 | < 6.59 µM and 6.59 µM | 185 to 187 | – | – | – | –
3 | Cc1ccc(-c2onc3ccc(Cl)cc23)cc1 [Compound 3c, 5-Chloro-3-(p-tolyl)benzo[c]isoxazole] | 8.76 ± 0.058 | 3.3 | 2.63 ± 0.178 µM | 136 to 138 | – | – | – | –
4 | C(#Cc1ccc2noc(-c3ccccc3)c2c1)c1ccccc1 [Compound 3d, 3-Phenyl-5-(phenylethynyl)benzo[c]isoxazole] | 71.6 ± 3.08 | 9.0 | 7.92 ± 0.684 µM | 143 to 144 | – | – | – | –
5 | Cc1nc(-c2cc3noc(-c4ccccc4)c3cc2Cl)no1 [Compound 3e, 5-Chloro-6-(5-methyl-1,2,4-oxadiazol-3-yl)-3-phenylbenzo[c]isoxazole] | 8.95 ± 0.581 | 2.5 | 3.55 ± 0.037 µM | 171 to 172 | – | – | – | –
6 | CC1(c2ccc3noc(-c4cccc(Cl)c4)c3c2)OCCO1 [Compound 3f, 3-(3-Chlorophenyl)-5-(2-methyl-1,3-dioxolan-2-yl)benzo[c]isoxazole] | > 100 | – | 25.1 ± 2.41 µM | 175 to 177 | – | – | – | –
7 | Brc1ccc2noc(-c3ccccc3)c2c1 [Compound 3g, 5-Bromo-3-phenylbenzo[c]isoxazole] | 19.5 ± 3.2 | 3.4 | 5.79 ± 0.013 µM | 116 to 118 | – | – | – | –
8 | Ic1ccc2noc(-c3ccccc3)c2c1 [Compound 3h, 5-Iodo-3-phenylbenzo[c]isoxazole] | 17.7 ± 0.424 | 1.1 | < 16.3 µM and 16.3 µM | 112 to 115 | – | – | – | –
9 | Cc1ccc(-c2onc3ccc(I)cc23)cc1 [Compound 3i, 5-Iodo-3-(p-tolyl)benzo[c]isoxazole] | 43.9 ± 11.3 | 13 | < 6.59 µM and 3.49 µM | 109 to 110 | – | – | – | –
10 | Clc1ccc2noc(-c3ccccc3)c2c1 [Compound 3j, 5-Chloro-3-phenylbenzo[c]isoxazole] | 10.6 ± 0.049 | – | 4.43 ± 0.12 µM | – | – | – | – | –
11 | Clc1cc2noc(-c3ccccc3)c2cc1Cl [Compound 3k, 6-Dichloro-3-phenylbenzo[c]isoxazole] | > 100 | – | 5.56 ± 0.73 µM | – | – | – | – | –
12 | c1ccc(-c2onc3ccc(C4OCCO4)cc23)cc1 [Compound 3l, 5-(1,3-Dioxolan-2-yl)-3-phenylbenzo[c]isoxazole] | 5.35 ± 0.211 | 0.20 | 27.3 ± 2.16 µM | 137 to 138 | competitive | 0.5 ± 0.024 | 0.46 | –
13 | Clc1ccc2noc(-c3ccc(Br)cc3)c2c1 [Compound 3m, 3-(4-Bromophenyl)-5-chlorobenzo[c]isoxazole] | 83.2 ± 33.3 | 71 | 1.18 ± 0.022 µM | 230 to 232 | – | – | – | –
14 | Clc1ccc(-c2onc3ccc(Cl)cc23)cc1 [Compound 3n, 5-Chloro-3-(4-chlorophenyl)benzo[c]isoxazole] | 81.3 ± 28.7 | 39 | 2.07 ± 0.381 µM | 229 to 232 | – | – | – | –
15 | COc1ccc(-c2onc3ccc(Cl)cc23)cc1 [Compound 3o, 5-Chloro-3-(4-methoxyphenyl)benzo[c]isoxazole] | 8.49 ± 0.017 | 3.6 | 2.34 ± 0.055 µM | 174 | – | – | – | –
16 | c1ccc(-c2onc3ccc(Oc4ccc5noc(-c6ccccc6)c5c4)cc23)cc1 [Compound 5, 5,5'-Oxybis(3-phenylbenzo[c]isoxazole)] | 3.29 ± 0.254 | 0.33 | 10 ± 0.949 µM | 190 to 192 | – | – | – | –
17 | N#Cc1ccc(-c2onc3ccc(Cl)cc23)cc1 [Compound 7b, 4-(5-Chlorobenzo[c]isoxazol-3-yl)benzonitrile] | 61 ± 9.19 | 622 | 0.098 ± 0.0036 µM | 236 to 237 | – | – | – | at least 12 fold
18 | Cc1nc(-c2cc3noc(-c4ccc(C#N)cc4)c3cc2Cl)no1 [Compound 7c, 4-(5-Chloro-6-(5-methyl-1,2,4-oxadiazol-3-yl)benzo[c]isoxazol-3-yl)benzonitrile] | > 100 | – | 0.139 ± 0.044 µM | 257 to 258 | – | – | – | –
19 | COc1ccc2c(c1)[nH]c1c(C)nccc12 [Harmine, reference compound] | – | – | > 100 µM | – | – | – | – | –
